Assay results reported in patent publication US20190308988A1, “OPIOID RECEPTOR ANTAGONIST PRODRUGS” (Nirsum Laboratories, Inc., priority 2017, published 2019).

Experiments:
[1] = Polymorph screening of solid state drug substances (Table 23); format: physicochemical; conditions: stirred 50 °C 72 hours; for Dry method and appearance: dried solid
[2] = Liver S9 fraction stability, human; format: in vitro ADME; conditions: human liver S9 1.0 mg/ml, 2 μM, 37° C.
Protocol: (§1) Liver S9 fraction stability determination of the test compounds in dog, cynomolgus monkey and human is performed using HPLC-MS. Test compound (2 μM, 0.1% DMSO, 1% Methanol final concentration) was assessed for stability in a 50 μl phosphate buffer containing 1.0 mg/ml S9 protein from each of the three species and 5 mM D-saccharic acid-1, 4-lactone. Samples were incubated at 37° C. for 60 minutes and the % compound remaining was assessed.

[3] = Plasma stability, human plasma (HPLC-MS); format: in vitro ADME; conditions: 2 μM, 37° C., 120 min
Protocol: (§2) Plasma Stability Determination of the Test Compounds in Rat, Dog, Cynomolgus Monkey and human plasma is performed using HPLC-MS. For rat, incubations are carried out in 96-well polypropylene plates in 5 aliquots of 70 μL each (one for each time point). […] Five time points are analyzed (0, 15, 120, 480 and 1440 min). […] All incubations are performed in duplicates. The samples are analyzed by HPLC-MS. The percentage of parent compound remaining after incubation in plasma is determined.

[4] = Liver S9 fraction stability, dog; format: in vitro ADME; conditions: dog liver S9 1.0 mg/ml, 2 μM, 37° C.
Protocol: as §1

[5] = Liver S9 fraction stability, monkey; format: in vitro ADME, cynomolgus monkey; conditions: monkey liver S9 1.0 mg/ml, 2 μM, 37° C.
Protocol: as §1

[6] = Plasma stability, monkey plasma (HPLC-MS); format: in vitro ADME, Cynomolgus Monkey; conditions: 2 μM, 37° C.
Protocol: as §2

[7] = in vivo; cited from earlier work

C=C1CC[C@@]2(O)C3Cc4ccc(OC(=O)NC(C)(C)C)c5c4[C@@]2(CCN3CC2CC2)[C@H]1O5 [Compound 40, (4aS,7aS,12bS)-3-(cyclopropylmethyl)-4a-hydroxy-7-methylene-2,3,4,4a,5,6,7,7a-octahydro-1H-4,12-methanobenzofuro[3,2-e]isoquinolin-9-yl tert-butylcarbamate]
XRPD results (Dried) ([1]; Acetone): Amorphous | Dry method and appearance ([1]; Acetone): Evaporation/white powder | XRPD results (Dried) ([1]; EtOAc): Pattern A | Dry method and appearance ([1]; EtOAc): Evaporation/white powder | XRPD results (Dried) ([1]; Heptane): Pattern A | Dry method and appearance ([1]; Heptane): Centrifugation/white powder | XRPD results (Dried) ([1]; Isopropanol): Amorphous | Dry method and appearance ([1]; Isopropanol): Evaporation/oil | XRPD results (Dried) ([1]; MTBE): Amorphous | Dry method and appearance ([1]; MTBE): Evaporation/white powder | melting point: 107.6 °C

CCCCCCCCCCCC(=O)OCN1C(=O)CCc2ccc(OCCCCN3CCN(c4cccc(Cl)c4Cl)CC3)cc21 [Aripiprazole lauroxil, reference compound]
% remaining at 60 minutes, Human [2]: 47.8% | % remaining at time point in minutes, 120 min [3]: 80% | % remaining at 60 minutes, Dog [4]: 66.1% | % remaining at 60 minutes, Monkey [5]: 56.6%

CCCCCCCCCCCCCCCC(=O)OC1CCCn2c1nc(C)c(CCN1CCC(c3noc4cc(F)ccc34)CC1)c2=O (centres unmarked) [Paliperidone palmitate, reference compound]
% remaining at 60 minutes, Human [2]: 47.8% | % remaining at 60 minutes, Dog [4]: 56.4% | % remaining at 60 minutes, Monkey [5]: 57.4% | % remaining at time point in minutes, 15 min [6]: 92%

Oc1ccc2c3c1O[C@H]1[C@H](O)CC[C@@]4(O)[C@@H](C2)N(CC2CC2)CC[C@]314 [6-β-naltrexol]
mean elimination half-life [7]: thirteen
